Assay results taken from PMC3634983 (Clinical Drug Investigation, 2013).
Where two headings read alike, the source gives them in different places. Blank lines part the entries; values can stand above or below the molecule they belong to.

Experiments:
[1] = assay type: in vivo, human; conditions: for detectability in plasma: after single oral doses of dabigatran etexilate; for AUC(0-inf) / Cmax / Tmax: human, plasma, po
healthy subjects [2] = test: Thorough QT study: ECG profiles; assay type: in vivo, human; conditions: for Adjusted mean (SE) ∆ QTcI: time-matched change from baseline between 1.5 and 3 h post-dose, n=40; for ∆∆HR / ∆∆QTcI / ∆∆QT: mean (90 % CI)
healthy subjects [3] = test: Safety and tolerability evaluation; assay type: in vivo, human
[4] = cited from earlier work
[5] = system: activated partial thromboplastin time; conditions: 600 mg dose; achieved at 2–4 h post-dose; pilot study; cited from earlier work
[6] = system: hERG-mediated potassium current; conditions: human embryonic kidney cells; cited from earlier work
[7] = cited from earlier work; remark: listed apart in the source
healthy subjects [8] = assay type: in vivo, human
[9] = system: isolated guinea pig papillary muscles; conditions: concentrations up to 10 μmol/L; cited from earlier work
anaesthetised pigs = conditions: up to 3 mg/kg intravenously; cited from earlier work
[10] = following an oral dose without food; cited from earlier work
healthy subjects [11] = conditions: after a single dose; cited from earlier work
[12] = dabigatran etexilate 150 mg, 1:00 h post-dose
[13] = dabigatran etexilate 150 mg, 1:30 h post-dose
[14] = dabigatran etexilate 150 mg, 2:00 h post-dose
[15] = dabigatran etexilate 150 mg, 3:00 h post-dose
[16] = dabigatran etexilate 150 mg, 6:00 h post-dose
[17] = dabigatran etexilate 150 mg, 12:00 h post-dose
[18] = dabigatran etexilate 150 mg, 24:00 h post-dose
[19] = dabigatran etexilate 150 mg, between 1 and 6 h post-dose
[20] = dabigatran etexilate 600 mg, 1:00 h post-dose
[21] = dabigatran etexilate 600 mg, 1:30 h post-dose
[22] = dabigatran etexilate 600 mg, 2:00 h post-dose
[23] = dabigatran etexilate 600 mg, 3:00 h post-dose
[24] = dabigatran etexilate 600 mg, 6:00 h post-dose
[25] = dabigatran etexilate 600 mg, 12:00 h post-dose
[26] = dabigatran etexilate 600 mg, 24:00 h post-dose
[27] = dabigatran etexilate 600 mg, between 1 and 6 h post-dose
[28] = at gMean Cmax of dabigatran etexilate 150 mg dose
[29] = at gMean Cmax of dabigatran etexilate 600 mg dose
[30] = exposure-response analysis for placebo-corrected CfB of HR, post hoc
[31] = exposure-response analysis for placebo-corrected CfB of QTcI, post hoc
[32] = moxifloxacin 400 mg, 1:00 h post-dose
[33] = moxifloxacin 400 mg, 1:30 h post-dose
[34] = moxifloxacin 400 mg, 2:00 h post-dose
[35] = moxifloxacin 400 mg, 3:00 h post-dose
[36] = moxifloxacin 400 mg, 6:00 h post-dose

Mean Cmax with 600 mg relative to 150 mg dose ([1]; dabigatran etexilate 600 mg versus 150 mg): approximately fourfold higher
Cmax after 600 mg relative to steady-state concentration in patients ([1]; versus patients receiving dabigatran etexilate 150 mg once daily): 4 times
Cmax after 600 mg relative to steady-state concentration in patients ([1]; versus patients receiving dabigatran etexilate 150 mg twice daily): 2.6 times
SMILES: CCCCCCOC(=O)NC(=N)c1ccc(NCc2nc3cc(C(=O)N(CCC(=O)OCC)c4ccccn4)ccc3n2C)cc1 [Dabigatran etexilate]
detectability in plasma [1]: only detectable between 0.5 and 3 h post-dosing and then only in very low concentrations
upper bound of the two-sided 90 % CI of the largest time-matched mean difference from placebo (QTcI) (healthy subjects [2]; both dose levels (150 mg and 600 mg), 0.5 to 24 h post-dose): 3 to 4 ms
upper limit of 95 % CI, secondary endpoints (QTcI versus placebo) (healthy subjects [2]; both doses (150 mg and 600 mg)): below 4 ms
upper limit of the 95 % CI, primary endpoint (QTcI versus placebo) (healthy subjects [2]; both doses (150 mg and 600 mg)): approximately 1.5 ms
Adjusted mean (SE) ∆ QTcI (healthy subjects [2]; dabigatran etexilate 150 mg single oral dose): −4.9 (1.1) ms
∆∆HR (healthy subjects [2]; [12]): 0.7 (−0.5 to 1.8) bpm
∆∆QTcI (healthy subjects [2]; [12]): −0.1 (−2.5 to 2.2) ms
∆∆HR (healthy subjects [2]; [13]): −0.3 (−1.4 to 0.8) bpm
∆∆QT (healthy subjects [2]; [13]): −0.6 (−3.3 to 2.1) ms
∆∆QTcI (healthy subjects [2]; [13]): −1.4 (−3.2 to 0.4) ms
∆∆HR (healthy subjects [2]; [14]): −0.3 (−1.5 to 0.8) bpm
∆∆QT (healthy subjects [2]; [14]): −0.2 (−2.9 to 2.6) ms
∆∆QTcI (healthy subjects [2]; [14]): −0.7 (−2.9 to 1.6) ms
∆∆QT (healthy subjects [2]; [15]): −1.9 (−4.9 to 1.0) ms
∆∆QTcI (healthy subjects [2]; [15]): −1.1 (−3.3 to 1.2) ms
∆∆QT (healthy subjects [2]; [16]): −0.5 (−3.8 to 2.7) ms
∆∆QTcI (healthy subjects [2]; [16]): −0.4 (−3.0 to 2.2) ms
∆∆HR (healthy subjects [2]; [17]): −0.4 (−1.7 to 0.9) bpm
∆∆QT (healthy subjects [2]; [17]): 1.3 (−1.8 to 4.5) ms
∆∆QTcI (healthy subjects [2]; [17]): 0.9 (−1.7 to 3.5) ms
∆∆HR (healthy subjects [2]; [18]): −0.1 (−1.1 to 1.0) bpm
∆∆QT (healthy subjects [2]; [18]): −0.2 (−2.8 to 2.5) ms
∆∆QTcI (healthy subjects [2]; [18]): −0.1 (−1.9 to 1.7) ms
mean time-matched CfB of QTcI (healthy subjects [2]; [19]): -5.3 ms
upper bound of the two-sided 90 % CI of placebo-adjusted CfB of QTcI (healthy subjects [2]; [19]): 1.5 ms
upper bound of the two-sided 90 % CI of placebo-adjusted CfB of QTcI (healthy subjects [2]; dabigatran etexilate 150 mg, between 1.5 and 3 h post-dose): 1.4 ms
Adjusted mean (SE) ∆ QTcI (healthy subjects [2]; dabigatran etexilate 600 mg single oral dose): −5.0 (1.1) ms
∆∆HR (healthy subjects [2]; [20]): 0.5 (−0.6 to 1.6) bpm
∆∆QT (healthy subjects [2]; [20]): −1.8 (−5.2 to 1.5) ms
∆∆QTcI (healthy subjects [2]; [20]): −1.5 (−3.8 to 0.9) ms
∆∆HR (healthy subjects [2]; [21]): −0.3 (−1.5 to 0.8) bpm
∆∆QT (healthy subjects [2]; [21]): −0.6 (−3.3 to 2.1) ms
∆∆QTcI (healthy subjects [2]; [21]): −1.7 (−3.5 to 0.2) ms
∆∆HR (healthy subjects [2]; [22]): −1.1 (−2.2 to 0.1) bpm
∆∆QT (healthy subjects [2]; [22]): −0.9 (−3.7 to 1.8) ms
∆∆QTcI (healthy subjects [2]; [22]): −2.6 (−4.8 to −0.4) ms
∆∆HR (healthy subjects [2]; [23]): 1.5 (−0.1 to 2.9) bpm
∆∆QT (healthy subjects [2]; [23]): −2.9 (−5.8 to 0.1) ms
∆∆QTcI (healthy subjects [2]; [23]): −1.1 (−3.3 to 1.1) ms
∆∆HR (healthy subjects [2]; [24]): 0.6 (−0.7 to 1.9) bpm
∆∆QT (healthy subjects [2]; [24]): −1.1 (−4.3 to 2.2) ms
∆∆QTcI (healthy subjects [2]; [24]): −0.8 (−3.4 to 1.8) ms
∆∆HR (healthy subjects [2]; [25]): −0.2 (−1.5 to 1.1) bpm
∆∆QT (healthy subjects [2]; [25]): 1.0 (−2.1 to 4.2) ms
∆∆QTcI (healthy subjects [2]; [25]): 0.4 (−2.2 to 3.0) ms
∆∆HR (healthy subjects [2]; [26]): 1.1 (0.0 to 2.2) bpm
∆∆QTcI (healthy subjects [2]; [26]): −1.6 (−3.4 to 0.2) ms
mean time-matched CfB of QTcI (healthy subjects [2]; [27]): -5.4 ms
upper bound of the two-sided 90 % CI of placebo-adjusted CfB of QTcI (healthy subjects [2]; [27]): 1.4 ms
upper bound of the two-sided 90 % CI of placebo-adjusted CfB of QTcI (healthy subjects [2]; dabigatran etexilate 600 mg, between 1.5 and 3 h post-dose): 1.3 ms
prolongation of QTcN, QTcF, uncorrected QT and QTcB (healthy subjects [2]; either dabigatran etexilate dose): none of these parameters was prolonged
prolongation of the QT interval (healthy subjects [2]; overall study result): ≤ 5 ms
QT prolongation or arrhythmogenic effects (conclusion) (healthy subjects [2]; therapeutic (150 mg) and supratherapeutic (600 mg) doses): not associated with QT prolongation or arrhythmogenic effects
subjects with adverse events within the treatment period (healthy subjects [3]; dabigatran etexilate 150 mg, three subjects of 40): 7.5%
subjects with adverse events within the treatment period (healthy subjects [3]; dabigatran etexilate 600 mg, four subjects of 40): 10%
tolerability (healthy subjects [3]; single oral doses of 150 mg and 600 mg): well tolerated
steady-state concentration ([4]; patients receiving dabigatran etexilate 150 mg once daily): 99.2 ng/mL
steady-state concentration ([4]; patients receiving dabigatran etexilate 150 mg twice daily): 146 ng/mL
increase in activated partial thromboplastin time [5]: two- to threefold increase

SMILES: CCOC(=O)CCN(C(=O)c1ccc2c(c1)nc(CNc1ccc(C(=N)N)cc1)n2C)c1ccccn1 [BIBR951]
detectability in plasma [1]: only detectable between 0.5 and 3 h post-dosing and then only in very low concentrations

AUC(0-inf) ([1]; 150 mg): 540 ng·h/mL
Cmax ([1]; 150 mg): 71.4 ng/mL
Tmax ([1]; 150 mg): 2.03 h
AUC(0-inf) ([1]; 600 mg): 2230 ng·h/mL
Cmax ([1]; 600 mg): 281 ng/mL
Tmax ([1]; 600 mg): 3 h
Predicted value of ∆∆HR at Cmax (90 % CI) (healthy subjects [8]; [28]): 0.3 (−0.4 to 1.0) bpm
Predicted value of ∆∆HR at Cmax (90 % CI) (healthy subjects [8]; [29]): 0.4 (−0.9 to 1.7) bpm
PK-∆∆HR intercept (healthy subjects [8]; [30]): 0.26 bpm
PK-∆∆HR slope (healthy subjects [8]; [30]): 0.0005 bpm/[ng/mL]
SMILES: [H]/N=C(/N)c1ccc(NCc2nc3cc(C(=O)N(CCC(=O)O)c4ccccn4)ccc3n2C)cc1 [dabigatran]
effect on hERG-mediated potassium current [6]: did not modify the hERG-mediated potassium current
half-life [7]: 12 to 17 h
Predicted value of ∆∆QTcI at Cmax (90 % CI) (healthy subjects [8]; [28]): 0.4 (−0.9 to 1.7) ms
Predicted value of ∆∆QTcI at Cmax (90 % CI) (healthy subjects [8]; [29]): 0.5 (−1.5 to 2.6) ms
PK-∆∆QTcI intercept (healthy subjects [8]; [31]): 0.34 ms
PK-∆∆QTcI slope (healthy subjects [8]; [31]): ~0 ms/[ng/mL]
PK-∆∆QTcI slope (healthy subjects [8]; exposure-response analysis for placebo-corrected CfB of QTcI, post hoc, listed as Free non-conjugated dabigatran): 0.0006 ms/[ng/mL]
90 % CI of the predicted value of placebo-corrected CfB of QTcI at gMean Cmax (healthy subjects [8]; total and free dabigatran, each dose (all four analyses)): below 3 ms
changes in QT interval [9]: no noteworthy changes in QT interval
influence on cardiovascular parameters (anaesthetised pigs): no influence on cardiovascular parameters

SMILES: CCCCCCOC(=O)NC(=N)c1ccc(NCc2nc3cc(C(=O)N(CCC(=O)O)c4ccccn4)ccc3n2C)cc1 [BIBR1087]
detectability in plasma [1]: only detectable between 0.5 and 3 h post-dosing and then only in very low concentrations

SMILES: COc1c(N2C[C@@H]3CCCN[C@@H]3C2)c(F)cc2c(=O)c(C(=O)O)cn(C3CC3)c12 [Moxifloxacin, moxifloxacin]
time of peak plasma concentration [10]: 1 to 4 h
QT-interval prolongation (healthy subjects [11]): 8 to 14 ms
∆∆HR (healthy subjects [2]; [32]): 2.4 (0.9 to 3.8) bpm
∆∆QT (healthy subjects [2]; [32]): 8.3 (4.7 to 11.9) ms
∆∆QTcI (healthy subjects [2]; [32]): 11.1 (8.4 to 13.8) ms
∆∆HR (healthy subjects [2]; [33]): 1.3 (0.1 to 2.5) bpm
∆∆QT (healthy subjects [2]; [33]): 11.9 (8.3 to 15.5) ms
∆∆QTcI (healthy subjects [2]; [33]): 12.8 (10.2 to 15.6) ms
∆∆HR (healthy subjects [2]; [34]): 0.4 (−1.0 to 1.7) bpm
∆∆QT (healthy subjects [2]; [34]): 13.6 (10.4 to 16.9) ms
∆∆QTcI (healthy subjects [2]; [34]): 14.1 (11.7 to 16.5) ms
∆∆QTcI (healthy subjects [2]; moxifloxacin 400 mg, 2:00 h post-dose, listed as moxifloxacin): 14.1 ms
∆∆HR (healthy subjects [2]; [35]): 2.7 (1.1 to 4.4) bpm
∆∆QT (healthy subjects [2]; [35]): 10.3 (6.9 to 13.8) ms
∆∆QTcI (healthy subjects [2]; [35]): 14.1 (11.4 to 16.7) ms
∆∆HR (healthy subjects [2]; [36]): 1.5 (0.1 to 2.8) bpm
∆∆QT (healthy subjects [2]; [36]): 9.2 (6.1 to 12.2) ms
∆∆QTcI (healthy subjects [2]; [36]): 10.4 (8.0 to 12.8) ms
Mean (SE) [90 % CI] ∆∆ QTcI (healthy subjects [2]; moxifloxacin 400 mg, placebo-corrected change from baseline between 1.5 and 3 h post-dose): 14.2 ms
Global tolerability (good / satisfactory / not satisfactory / bad) (healthy subjects [3]; investigator-assessed): one subject who responded ‘not satisfactory’
subjects with adverse events within the treatment period (healthy subjects [3]; moxifloxacin 400 mg, one subject of 40 ('feeling dazed')): 2.5%
